“Also recorded” adds a separate entry of the source. Like-named read-outs stand apart in the source and are kept apart here.
Legend:
[1] = system: Staphylococcus aureus (Staph) planktonic bacteria; experiment: MBEC assay, planktonic Staph isolates (Example 5); format: cell-based; conditions: number of resistant isolates; 12 isolates from device associated infections; exposed 24 hours
[2] = system: Staphylococcus aureus (Staph) biofilm; experiment: MBEC assay, Staph biofilms (Example 5); format: cell-based; conditions: number of resistant isolates; 12 isolates from device associated infections; exposed 24 hours
[3] = system: planktonic Staphylococcus aureus; experiment: Staphylococcus test plate, planktonic forms (Example 9); format: cell-based; conditions: breakpoint concentrations, number in the label is the concentration tested
[4] = system: Staphylococcus aureus biofilm; experiment: Staphylococcus test plate, biofilm forms (Example 9); format: cell-based; conditions: breakpoint concentrations, number in the label is the concentration tested
[5] = system: planktonic Candida cells; experiment: Planktonic antifungal sensitivity of Candida spp.; format: cell-based; conditions: all species tested
Protocol: (§1) Three clinical isolates of Candida were used in this study, including one albicans and two non-albicans species. C. albicans ATCC 14053 was obtained from the University Of Calgary, Department Of Biological Sciences. C. tropicalis 99916 and C. glabrata 14326 were obtained from the dialysate of patients undergoing continued ambulatory peritoneal dialysis (CAPD). Aspergillus fumigatus was also tested.
(§2) Biofilm susceptibility testing uses the pegged lid of the assembly, now containing biofilms formed after rocking in the tray for 24 hour. Each peg on the lid was gently washed once in 200 μl of phosphate buffered saline solution (PBSS) in a 96-well microtiter plate (Falcon). The pegged lid was then transferred to another 96 well microtiter plate containing 2 fold dilutions antifungal agent in 200 μl of RPMI 1640 (Sigma, St. Louis, Mo.) or RPMI 1640 containing 1% DMSO (see test drug section). After the pegs were exposed to the drugs for 24 hours, the pegged lid was removed and gently rinsed twice in saline. The pegged lid was then placed on a 96 well plate containing RPMI 1640 recovery medium. The pegs were sonicated for 5 minutes (Candida spp.) or 7 minutes (Aspergillus) in an ultrasonicator to dislodge adherent cells into the recovery medium. Aliquots of 20 μl of the recovery medium were spot plated on SDA (Candida spp) or Rose Bengal Agar (A. fumigatus) to obtain the MBEC. The assembly was also used to determine the minimum inhibitory concentration (MIC) and minimum fungicidal concentration (MFC). The turbidity of the wells that contained the antibiotic and planktonic cells which were shed from the biofilm was measured at 650 nm to obtain the MIC. A 20 μl sample from each well was also spot plated onto Sabouraud Dextrose agar (Candida spp) or Rose Bengal Agar (A. fumigatus) to obtain the MFC.
Minimum Inhibitory Concentrations (MIC) and Minimum Fungicidal Concentrations (MFC) were determined according to the guidelines of the National Committee for Clinical laboratory Standards (NCCLS). Briefly, Candida sp. were maintained on polystyrene spheres at −70° C. until plating. These organisms were streaked onto Sabouraud Dextrose agar (Microbiologie) plates 24 hours before test initiation. The 24 hour colonies were picked from the agar plates and placed in Muellar-Hinton Broth (MHB, Microbiologie) such that the turbidity matched a McFarland standard of 0.5. This was then diluted 1:10 in MHB to obtain a suspension of approximately 1×10^5 to 5×10^5 CFU/ml. A 5 μl volume of this suspension was added to wells containing 200 μl of antifungal agent serially diluted in RPMI 1640 media (Sigma) in a 96 well microtiter plate (Nunclon). A. fumigatus was maintained as a spore suspension at 4° C. until testing. The spore suspension (50 μl) was diluted into 250 ml of TSB, and 5 μl of this suspension was added to each test well containing dilution of antifungal agent as above.
The test wells were then incubated at 37° C. for 24 hours with the antifungal drugs. MICs for Candida were obtained after incubation by reading the turbidity at 650 nm on a microtiter plate reader (Softmax, VWR). A 20 μl aliquot of each well was also plated (SDA) and MFCs obtained from them after 24 hours incubation at 37° C. MFCs were determined for Aspergillus by plating 100 μl from each well onto Rose Bengal Agar, followed by spreading with a sterile glass spreader. The plated organisms were maintained at 25° C. for three days before colony enumeration.
Drugs tested. Itraconazole, Fluconazole, and Ketoconazole were obtained from Janssen Pharmaceuticals in Brussels, Belgium. Nystatin 5-Fluorocytosine, Griseofulvin, Amphotericin B and Polymyxin B were obtained from Sigma Chemical Co, St. Louis, Mo. 5-Fluorocytosine, polymyxin B sulphate and nystatin were dissolved in double-distilled water to a concentration of 10.24 mg/ml and diluted in the test wells through a range of 1024 μg/ml to 0.125 μg/ml in RPMI. […]

[6] = system: Candida biofilms; experiment: Minimum biofilm eradication concentration assay, Candida spp. biofilms; format: cell-based; conditions: for effectiveness against Candida growing as a biofilm: biofilm (sessile) Candida
Protocol: as §1
Biofilm formation and measurement of antimicrobial sensitivity of Candida and Aspergillus biofilms were performed using an assembly of the present invention. The device features a microtiter plate lid with 96 pegs or projections distributed on the lid. Each peg provided the surface for microorganism to adhere, colonize and form a uniform biofilm. The pegs fit precisely into the wells of a standard 96-well microtiter plate. The lid was used in conjunction with a base having special troughs for growing, washing, and incubating fungi. Colonies of Candida sp. were picked from 24 hour cultures on Sabouraud Dextrose agar (SDA) (BBL Microbiological Systems, Cockeysville, Md.) and placed into Mueller-Hinton Broth (MHB) (Difco Laboratories, Detroit Mich.) such that the suspension matched a McFarland standard of 1.0. This suspension was then diluted 1:30 in MHB, and 25 ml were pipetted into the trough chamber of the base. The closed assembly (lid with pegs positioned on the base) was placed on a Hoeffer Red Rocker (VWR, Scientific) set to rock the plates 3.5 cycles per minute in a 37° C. incubator. C. albicans and C. tropicalis were incubated aerobically, while C. glabrata was incubated in 10% CO2. It was determined in preliminary experiments that C. glabrata required 10% CO2 atmosphere for biofilms to form.
as §2
Drugs tested. Itraconazole, Fluconazole, and Ketoconazole were obtained from Janssen Pharmaceuticals in Brussels, Belgium. Nystatin 5-Fluorocytosine, Griseofulvin, Amphotericin B and Polymyxin B were obtained from Sigma Chemical Co, St. Louis, Mo. […]

[7] = system: planktonic cultures of C. albicans; experiment: Planktonic antifungal sensitivity (MIC, MFC) of C. albicans; format: cell-based, Candida albicans
Protocol: as §1
as §2, with “The assembly was also used to determine the minimum inhibitory concentration (MIC) and minimum fungicidal concentration (MFC).” left out, “A 20 μl sample from each well was also spot plated onto Sabouraud Dextrose agar (Candida spp) or Rose Bengal Agar (A. fumigatus) to obtain the MFC.” left out
(§3) Minimum Inhibitory Concentrations (MIC) and Minimum Fungicidal Concentrations (MFC) were determined according to the guidelines of the National Committee for Clinical laboratory Standards (NCCLS). […]
(§4) The test wells were then incubated at 37° C. for 24 hours with the antifungal drugs. MICs for Candida were obtained after incubation by reading the turbidity at 650 nm on a microtiter plate reader (Softmax, VWR). […] MFCs were determined for Aspergillus by plating 100 μl from each well onto Rose Bengal Agar, followed by spreading with a sterile glass spreader. […]

[8] = system: biofilm cells of C. albicans; experiment: Minimum biofilm eradication concentration assay, C. albicans biofilm; format: cell-based, Candida albicans
Protocol: as §1
Biofilm formation and measurement of antimicrobial sensitivity of Candida and Aspergillus biofilms were performed using an assembly of the present invention. The device features a microtiter plate lid with 96 pegs or projections distributed on the lid. Each peg provided the surface for microorganism to adhere, colonize and form a uniform biofilm. The pegs fit precisely into the wells of a standard 96-well microtiter plate. The lid was used in conjunction with a base having special troughs for growing, washing, and incubating fungi. […] It was determined in preliminary experiments that C. glabrata required 10% CO2 atmosphere for biofilms to form.
(§5) Biofilm susceptibility testing uses the pegged lid of the assembly, now containing biofilms formed after rocking in the tray for 24 hour. […] The turbidity of the wells that contained the antibiotic and planktonic cells which were shed from the biofilm was measured at 650 nm to obtain the MIC. […]

[9] = cited from earlier work
[10] = system: invasive pulmonary, sinus and cerebral aspergillosis; conditions: cited from earlier work
[11] = system: Pseudomonas aeruginosa (Ps) planktonic bacteria; experiment: MBEC assay, planktonic Ps isolates (Example 5); format: cell-based; conditions: number of resistant isolates; 12 isolates from Cystic Fibrosis patients; exposed 24 hours
[12] = system: Pseudomonas aeruginosa (Ps) biofilm; experiment: MBEC assay, Ps biofilms (Example 5); format: cell-based; conditions: number of resistant isolates; 12 isolates from Cystic Fibrosis patients; exposed 24 hours
[13] = system: planktonic P. aeruginosa; experiment: Pseudomonas aeruginosa biofilm assay kit, planktonic MIC reading of challenge plate (Example 8); format: cell-based; conditions: challenge 24 hours at 35° C.; breakpoint concentrations
[14] = system: P. aeruginosa biofilm; experiment: Pseudomonas aeruginosa biofilm assay kit, biofilm MBEC reading of recovery plate (Example 8); format: cell-based; conditions: challenge 24 hours at 35° C.; recovery 20 to 24 hours; breakpoint concentrations
[15] = system: C. tropicalis; experiment: Planktonic antifungal sensitivity (MIC) of C. tropicalis; format: cell-based, Candida tropicalis; conditions: C. tropicalis strain tested
Protocol: as §1
as §5, with “hour. Each peg on the lid was gently washed once in 200 μl of phosphate buffered saline solution (PBSS) in a 96-well microtiter plate (Falcon).” for “hour.”
as §3, §4

[16] = planktonic cultures of C. albicans

Cc1onc(-c2ccccc2Cl)c1C(=O)N[C@@H]1C(=O)N2[C@@H]1SC(C)(C)[C@@H]2C(=O)O [CLOX, cloxacillin]
Staph resistance to individual antibiotics and antibiotic combinations, Planktonic [1]: 3
Staph resistance to individual antibiotics and antibiotic combinations, Biofilm [2]: 12
Number of Staphylococcus aureus isolates resistant to individual antibiotics and antibiotic combinations, Planktonic [3]: 2
Number of Staphylococcus aureus isolates resistant to individual antibiotics and antibiotic combinations, Biofilm [4]: 12

COC1=CC(=O)C[C@@H](C)[C@]12Oc1c(Cl)c(OC)cc(OC)c1C2=O [Griseofulvin]
effectiveness in killing planktonic Candida cells [5]: ineffective
effectiveness against Candida growing as a biofilm [6]: ineffective

Polymyxin B
effectiveness in killing planktonic Candida cells [5]: ineffective
effectiveness against Candida growing as a biofilm [6]: ineffective

CN[C@H](CC(C)C)C(=O)N[C@H]1C(=O)N[C@@H](CC(N)=O)C(=O)N[C@H]2C(=O)N[C@H]3C(=O)N[C@H](C(=O)N[C@H](C(=O)O)c4cc(O)cc(O)c4-c4cc3ccc4O)[C@H](O)c3ccc(c(Cl)c3)Oc3cc2cc(c3O[C@@H]2O[C@H](CO)[C@@H](O)[C@H](O)[C@H]2O[C@H]2C[C@](C)(N)[C@H](O)[C@H](C)O2)Oc2ccc(cc2Cl)[C@H]1O [VAN, vancomycin]
Staph resistance to individual antibiotics and antibiotic combinations, Planktonic [1]: 6
Staph resistance to individual antibiotics and antibiotic combinations, Biofilm [2]: 12
Number of Staphylococcus aureus isolates resistant to individual antibiotics and antibiotic combinations, Planktonic ([3]; listed as VAN2): 5
Number of Staphylococcus aureus isolates resistant to individual antibiotics and antibiotic combinations, Planktonic ([3]; listed as VAN4): 1
Number of Staphylococcus aureus isolates resistant to individual antibiotics and antibiotic combinations, Biofilm [4]: 12

C[C@@H]1[C@H](O)[C@@H](C)/C=C/C=C/C=C/C=C/C=C/C=C/C=C/[C@H](O[C@@H]2O[C@H](C)[C@@H](O)[C@H](N)[C@@H]2O)C[C@@H]2O[C@](O)(C[C@@H](O)C[C@@H](O)[C@H](O)CC[C@@H](O)C[C@@H](O)CC(=O)O[C@H]1C)C[C@H](O)[C@H]2C(=O)O [amphotericin B, Amphotericin B]
average MFC [7, 16]: 0.02 µg/mL
average MIC [7, 16]: 0.09 µg/mL
average concentration required to kill biofilm cells [8]: 12 µg/mL
effectiveness in killing planktonic Candida cells [5]: effective
MBEC ([6]; Candida biofilms): 16 µg/mL
effectiveness against Candida growing as a biofilm [6]: most effective agents
peak permissible human serum concentrations [9]: 2 µg/mL
cases that show any response ([10]; 14 days of treatment): 54%
crude mortality rate ([10]; patients treated for invasive cerebral aspergillosis): 99%
crude mortality rate ([10]; patients treated for invasive pulmonary aspergillosis): 86%
crude mortality rate ([10]; patients treated for invasive sinus aspergillosis): 66%

C[C@@H]1[C@H](O)[C@@H](C)/C=C/C=C/CC/C=C/C=C/C=C/C=C/C(O[C@H]2O[C@H](C)[C@@H](O)[C@H](N)[C@@H]2O)CC2O[C@](O)(CC(O)C(O)CCC(O)CC(O)CC(O)CC(=O)O[C@H]1C)CC(O)C2C(=O)O (stereo partly drawn) [nystatin, Nystatin]
effectiveness in killing planktonic Candida cells [5]: effective
effectiveness against Candida growing as a biofilm [6]: effective; also recorded: most effective agents

gentamicin [GM]
Staph resistance to individual antibiotics and antibiotic combinations, Planktonic [1]: 6
Staph resistance to individual antibiotics and antibiotic combinations, Biofilm [2]: 10
Ps resistance to individual antibiotics and antibiotic combinations, Planktonic [11]: 8
Ps resistance to individual antibiotics and antibiotic combinations, Biofilm [12]: 12
Number of P. aeruginosa isolates resistant to individual antibiotics and antibiotic combinations, Planktonic [13]: 8
Number of P. aeruginosa isolates resistant to individual antibiotics and antibiotic combinations, Biofilm [14]: 12
Number of Staphylococcus aureus isolates resistant to individual antibiotics and antibiotic combinations, Planktonic ([3]; listed as GM2): 4
Number of Staphylococcus aureus isolates resistant to individual antibiotics and antibiotic combinations, Planktonic ([3]; listed as GM4): 3
Number of Staphylococcus aureus isolates resistant to individual antibiotics and antibiotic combinations, Biofilm ([4]; listed as GM2): 11
Number of Staphylococcus aureus isolates resistant to individual antibiotics and antibiotic combinations, Biofilm ([4]; listed as GM4): 10

OC(Cn1cncn1)(Cn1cncn1)c1ccc(F)cc1F [fluconazole, Fluconazole]
classification by fluconazole MIC criterion (less than or equal to 8 μg/ml = susceptible) ([7]; C. albicans strain tested): susceptible
classification by fluconazole MIC criterion (less than or equal to 8 μg/ml = susceptible) [15]: susceptible
effectiveness in killing planktonic Candida cells [5]: effective

Reference: patent publication US20080318268A1, “Devices and Methods for the Selection of Agents with Efficacy Against Biofilm” (priority 2005, published 2008)
